According to patent US4396550A, “Dibenz [b,e] oxepin derivatives” (Kyowa Hakko Kogyo Co., Ltd., priority 1980, dated 1983):

Legend:
[1] = Antiasthmatic activity; format: in vivo; settings: po; for minimal effective dose: read-out: Antiasthmatic activity: MED
[2] = tested on: isolated ileum of guinea-pig; assay: Test for antihistaminergic effects on the isolated ileum of guinea-pig (histamine contraction, in vitro); parameters: species or system guinea-pig (male Hartly-strain); settings: depressing ratio of 80% or more of histamine contraction; for minimal effective concentration: Cavia porcellus, 0.05 h, read-out: Antihistaminergic activity: MED
Experimental: (§1) Male Hartly-strain guinea-pigs weighing about 250 g are killed and the abdomen is opened. The part (2-3 cm in length) of the ileum 10 cm away from the caecum to the pylorus is cut off as a preparation. The preparation is suspended with serre-fine in a Magnus bath containing 10 ml of Tyrode's solution at 32±1° C. under an air bubble. The contraction of the ileum is recorded on Kymograph through hebel when 0.1 ml of acetylcholine at a concentration of 10^-3 g/ml is added to the Tyrode's solution.
(§2) On the other hand, 3 minutes after administration of the test compounds, the same procedure as mentioned above is carried out to record the contraction.
In this test, 0.1 ml of histamine at a concentration of 5×10^-3 g/l is used.

[3] = tested on: male dd-strain rats; assay: Acute toxicity test (minimum lethal dose); format: in vivo; settings: mortality for 7 days
Experimental: Groups of male dd-strain rats (each group consisting of five rats) weighing 20±1 g were used. The compounds of the present invention were administered orally (po: 0.3 mg/g) or intraperitoneally (ip: 0.1 mg/g). The MLD (minimum lethal dose) was calculated from the mortality for 7 days after the administration to obtain the results given in Table 1.

[4] = tested on: blood platelets (platelet-rich plasma); assay: Test for the inhibition of platelet aggregation (collagen-induced, platelet-rich plasma); format: cell-based, male white rabbits; settings: depressing ratio of 50% of collagen-induced aggregation, compound 3 minutes before; for minimal effective concentration: Oryctolagus cuniculus, Platelet, 0.05 h, read-out: Antiplatelet aggregation activity: MED
Experimental: In this test, 9 vols. of blood are sampled from the caroted artery of male white rabbits weighing 2 to 2.5 kg and placed in a silicon-coated flask containing 1 vol. of 3.8% sodium citrate. The thus obtained blood is centrifuged at 1,000 rpm for 15 minutes to obtain platelet-rich plasma. The aggregation of the blood platelets is observed using an aggregometer, when collagen is added to the platelet-rich plasma to the extent of the final concentration that 50% of platelet aggregation is caused in the presence of 100 γ/ml of aspirin. On the other hand, 3 minutes after administration of the test compounds to the platelet-rich plasma, the same procedure as mentioned above is carried out to observe the aggregation of blood platelet. The test compounds showing a depressing ratio of 50%, compared with the inhibition of aggregation by collagen alone, are concluded to have antiplatelet aggregation activity.

[5] = tested on: isolated ileum of guinea-pig; assay: Test for anticholinergic effects on the isolated ileum of guinea-pig (acetylcholine contraction, in vitro); parameters: species or system guinea-pig (male Hartly-strain); settings: depressing ratio of 80% or more of acetylcholine contraction, compound 3 minutes before; for minimal effective concentration: Cavia porcellus, 0.05 h, read-out: Anticholinergic activity: MED (minimum effective dose)
Experimental: as §1, §2

4-methyl-11-(3-quinuclidinyl)amino-6,11-dihydrodibenz[b,e]oxepin [Compound 56]
Antiasthmatic activity: MED [1]: 100 mg/kg | Antihistaminergic activity: MED [2]: 1 µg/mL | Acute toxicity: MLD (minimum lethal dose) ([3]; ip): 100 mg/kg | Acute toxicity: MLD (minimum lethal dose) ([3]; po): 200 mg/kg | Antiplatelet aggregation activity: MED [4]: 20 µg/mL | Anticholinergic activity: MED (minimum effective dose) [5]: 1 µg/mL

CCc1ccc2c(c1)C(NCCN(CC)CC)c1ccccc1CO2 (stereo not drawn) [Compound 1, 2-ethyl-11-{2-(diethylamino)ethyl}amino-6,11-dihydrodibenz[b,e]oxepin]
minimal effective dose [1]: 50 mg/kg | minimal effective concentration [2]: 1 µg/mL | Acute toxicity: MLD (minimum lethal dose) ([3]; ip): > 100 mg/kg | Acute toxicity: MLD (minimum lethal dose) ([3]; po): > 300 mg/kg | minimal effective concentration [4]: 20 µg/mL | minimal effective concentration [5]: 1 µg/mL

CCN(CC)CCNC1c2ccccc2COc2ccc(C)cc21 (stereo not drawn) [Compound 8, 2-methyl-11-{2-(diethylamino)ethyl}amino-6,11-dihydrodibenz[b,e]oxepin]
minimal effective dose [1]: 25 mg/kg | minimal effective concentration [2]: 1 µg/mL | Acute toxicity: MLD (minimum lethal dose) ([3]; ip): > 100 mg/kg | Acute toxicity: MLD (minimum lethal dose) ([3]; po): 200 mg/kg | minimal effective concentration [4]: 20 µg/mL | minimal effective concentration [5]: 10 µg/mL

CCN(CC)CCNC1c2ccccc2COc2ccc(F)cc21 (stereo not drawn) [Compound 9, 2-fluoro-11-{2-(diethylamino)ethyl}amino-6,11-dihydrodibenz[b,e]oxepin]
minimal effective dose [1]: 50 mg/kg | minimal effective concentration [2]: 1 µg/mL | Acute toxicity: MLD (minimum lethal dose) ([3]; ip): 100 mg/kg | Acute toxicity: MLD (minimum lethal dose) ([3]; po): > 300 mg/kg | minimal effective concentration [4]: 50 µg/mL | minimal effective concentration [5]: 3 µg/mL

CCN(CC)CCNC1c2ccccc2COc2ccc(Cl)cc21 (stereo not drawn) [Compound 10, 2-chloro-11-{2-(diethylamino)ethyl}amino-6,11-dihydrodibenz[b,e]oxepin]
minimal effective dose [1]: 100 mg/kg | Acute toxicity: MLD (minimum lethal dose) ([3]; ip): > 100 mg/kg | Acute toxicity: MLD (minimum lethal dose) ([3]; po): > 300 mg/kg | minimal effective concentration [4]: 2 µg/mL

CCC(C)c1ccc2c(c1)C(NCCN(CC)CC)c1ccccc1CO2 (stereo not drawn) [Compound 11, 2-(1-methyl) propyl-11-{2-(diethylamino)ethyl}amino-6,11-dihydrodibenz[b,e]oxepin]
minimal effective dose [1]: 100 mg/kg | minimal effective concentration [2]: 0.3 µg/mL | Acute toxicity: MLD (minimum lethal dose) ([3]; ip): 100 mg/kg | Acute toxicity: MLD (minimum lethal dose) ([3]; po): > 300 mg/kg | minimal effective concentration [4]: 10 µg/mL | minimal effective concentration [5]: 0.03 µg/mL

CCN(CC)CCNC1c2ccccc2COc2ccc(OC)cc21 (stereo not drawn) [Compound 13, 2-methoxy-11-{2-(diethylamino)ethyl}amino-6,11-dihydrodibenz[b,e]oxepin]
minimal effective dose [1]: 100 mg/kg | minimal effective concentration [2]: 0.3 µg/mL | Acute toxicity: MLD (minimum lethal dose) ([3]; ip): > 100 mg/kg | Acute toxicity: MLD (minimum lethal dose) ([3]; po): > 300 mg/kg | minimal effective concentration [4]: 20 µg/mL | minimal effective concentration [5]: 1 µg/mL

Cc1ccc2c(c1)C(NCCCN(C)C)c1ccccc1CO2 (stereo not drawn) [Compound 14, 2-methyl-11-{3-(dimethylamino)propyl}amino-6,11-dihydrodibenz[b,e]oxepin]
minimal effective dose [1]: 100 mg/kg | minimal effective concentration [2]: 10 µg/mL | Acute toxicity: MLD (minimum lethal dose) ([3]; ip): > 100 mg/kg | Acute toxicity: MLD (minimum lethal dose) ([3]; po): > 300 mg/kg | minimal effective concentration [4]: 20 µg/mL | minimal effective concentration [5]: 10 µg/mL

Cc1ccc2c(c1)C(NCCN(C)C)c1ccccc1CO2 (stereo not drawn) [Compound 16, 2-methyl-11-{2-(dimethylamino)ethyl}amino-6,11-dihydrodibenz[b,e]oxepin]
minimal effective dose [1]: 25 mg/kg | minimal effective concentration [2]: 10 µg/mL | Acute toxicity: MLD (minimum lethal dose) ([3]; ip): > 100 mg/kg | Acute toxicity: MLD (minimum lethal dose) ([3]; po): 300 mg/kg | minimal effective concentration [4]: 50 µg/mL | minimal effective concentration [5]: 3 µg/mL

CCc1ccc2c(c1)C(NCCN(C)C)c1ccccc1CO2 (stereo not drawn) [Compound 17, 2-ethyl-11-{2-(dimethylamino)ethyl}amino-6,11-dihydrodibenz[b,e]oxepin]
minimal effective dose [1]: 10 mg/kg | minimal effective concentration [2]: 0.3 µg/mL | Acute toxicity: MLD (minimum lethal dose) ([3]; ip): > 100 mg/kg | Acute toxicity: MLD (minimum lethal dose) ([3]; po): 300 mg/kg | minimal effective concentration [4]: 50 µg/mL | minimal effective concentration [5]: 0.01 µg/mL

CN(C)CCNC1c2ccccc2COc2ccc(F)cc21 (stereo not drawn) [Compound 18, 2-fluoro-11-{2-(dimethylamino)ethyl}amino-6,11-dihydrodibenz[b,e]oxepin]
minimal effective dose [1]: 10 mg/kg | minimal effective concentration [2]: 0.3 µg/mL | Acute toxicity: MLD (minimum lethal dose) ([3]; ip): > 100 mg/kg | Acute toxicity: MLD (minimum lethal dose) ([3]; po): > 300 mg/kg | minimal effective concentration [4]: 50 µg/mL | minimal effective concentration [5]: 0.3 µg/mL

CN(C)CCNC1c2ccccc2COc2ccc(Cl)cc21 (stereo not drawn) [Compound 19, 2-chloro-11-{2-(dimethylamino)ethyl}amino-6,11-dihydrodibenz[b,e]oxepin]
minimal effective dose [1]: 25 mg/kg | minimal effective concentration [2]: 1 µg/mL | Acute toxicity: MLD (minimum lethal dose) ([3]; ip): > 100 mg/kg | Acute toxicity: MLD (minimum lethal dose) ([3]; po): > 300 mg/kg | minimal effective concentration [4]: 50 µg/mL | minimal effective concentration [5]: 3 µg/mL

Cc1ccc2c(c1)C(NC1CN3CCC1CC3)c1ccccc1CO2 (stereo not drawn) [Compound 20, 2-methyl-11-(3-quinuclidinyl)amino-6,11-dihydrodibenz[b,e]oxepin]
minimal effective dose [1]: 50 mg/kg | minimal effective concentration [2]: 0.1 µg/mL | Acute toxicity: MLD (minimum lethal dose) ([3]; ip): 50 mg/kg | Acute toxicity: MLD (minimum lethal dose) ([3]; po): 300 mg/kg | minimal effective concentration [4]: 100 µg/mL | minimal effective concentration [5]: 1 µg/mL

OCCN1CCN(C2c3ccccc3COc3ccc(Cl)cc32)CC1 (stereo not drawn) [Compound 40, 2-chloro-11-{4-(2-hydroxyethyl)-1-piperazinyl}-6,11-dihydrodibenz[b,e]oxepin]
minimal effective dose [1]: 50 mg/kg | minimal effective concentration [2]: 3 µg/mL | Acute toxicity: MLD (minimum lethal dose) ([3]; ip): > 100 mg/kg | Acute toxicity: MLD (minimum lethal dose) ([3]; po): > 300 mg/kg | minimal effective concentration [4]: 100 µg/mL

CN(C)CCCNC1c2ccccc2COc2ccc(Cl)cc21 (stereo not drawn) [Compound 50, 2-chloro-11-{3-(dimethylamino)propyl}amino-6,11-dihydrodibenz[b,e]oxepin]
minimal effective concentration [2]: 3 µg/mL | Acute toxicity: MLD (minimum lethal dose) ([3]; ip): > 100 mg/kg | Acute toxicity: MLD (minimum lethal dose) ([3]; po): 200 mg/kg | minimal effective concentration [4]: 50 µg/mL | minimal effective concentration [5]: 10 µg/mL

CCC(C)(C)c1ccc2c(c1)C(NC1CN3CCC1CC3)c1ccccc1CO2 (stereo not drawn) [Compound 53, 2-(1,1-dimethyl)propyl-11-(3-quinuclidinyl)amino-6,11-dihydrodibenz[b,e]oxepin]
minimal effective dose [1]: 50 mg/kg | minimal effective concentration [2]: 1 µg/mL | Acute toxicity: MLD (minimum lethal dose) ([3]; ip): 50 mg/kg | Acute toxicity: MLD (minimum lethal dose) ([3]; po): > 300 mg/kg | minimal effective concentration [5]: 10 µg/mL

c1ccc(-c2ccc3c(c2)C(NC2CN4CCC2CC4)c2ccccc2CO3)cc1 (stereo not drawn) [Compound 55, 2-phenyl-11-(3-quinuclidinyl)amino-6,11-dihydrodibenz[b,e]oxepin]
minimal effective concentration [2]: 1 µg/mL | Acute toxicity: MLD (minimum lethal dose) ([3]; ip): > 100 mg/kg | Acute toxicity: MLD (minimum lethal dose) ([3]; po): > 300 mg/kg | minimal effective concentration [4]: 20 µg/mL | minimal effective concentration [5]: 3 µg/mL

c1ccc(-c2cccc3c2OCc2ccccc2C3NC2CN3CCC2CC3)cc1 (stereo not drawn) [Compound 57, 4-phenyl-11-(3-quinuclidinyl)amino-6,11-dihydrodibenz[b,e]oxepin]
minimal effective concentration [2]: 3 µg/mL | Acute toxicity: MLD (minimum lethal dose) ([3]; ip): 100 mg/kg | Acute toxicity: MLD (minimum lethal dose) ([3]; po): > 300 mg/kg | minimal effective concentration [4]: 10 µg/mL | minimal effective concentration [5]: 3 µg/mL

Cc1ccc2c(c1)C(NCCN1CCOCC1)c1ccccc1CO2 (stereo not drawn) [Compound 59, 2-methyl-11-(2-morpholinoethyl)amino-6,11-dihydrodibenz[b,e]oxepin]
minimal effective dose [1]: 100 mg/kg | minimal effective concentration [2]: 10 µg/mL | Acute toxicity: MLD (minimum lethal dose) ([3]; ip): > 100 mg/kg | Acute toxicity: MLD (minimum lethal dose) ([3]; po): 200 mg/kg | minimal effective concentration [4]: 100 µg/mL

CCc1ccc2c(c1)C(NC1CC(C)(C)NC(C)(C)C1)c1ccccc1CO2 (stereo not drawn) [Compound 63, 2-ethyl-11-{4-(2,2,6,6-tetramethyl)piperidinyl}amino-6,11-dihydrodibenz[b,e]oxepin]
minimal effective concentration [2]: 3 µg/mL | Acute toxicity: MLD (minimum lethal dose) ([3]; ip): 100 mg/kg | Acute toxicity: MLD (minimum lethal dose) ([3]; po): 200 mg/kg | minimal effective concentration [4]: 10 µg/mL | minimal effective concentration [5]: 3 µg/mL
